Experimental findings from patent US20260265300A1, “TARGETING PRAC1 IN STEROID HORMONE DRIVEN CANCER” (Fred Hutchinson Cancer Center, priority 2023, published 2026) are described below.

“Also recorded” adds a separate entry of the source. Where two headings read alike, the source gives them in different places.

One data set concerns MCF7. Briefly: Cell viability of MCF7 breast cancer cells (CellTiter-Blue). It is filed as cell-based. Conditions: MCF7 (estrogen and progesterone receptor positive), relative to scrambled control peptide. The source says: Estrogen and progesterone receptor positive breast cancer cell line MCF7 with PRAC1 peptide […] FIG. 8A.
Data set [1] relates to LNCaP-abl cells. As to the kind of experiment: Cell viability of LNCaP-abl cells exposed to PRAC1 peptides (CellTiter-Blue, 72 hours). It is filed as cell-based. The settings on record: increasing concentrations of peptide. On the procedure: (§1) PRAC1-negative LNCaP-abl cells were grown and exposed to increasing concentrations of the cell-permeable peptides, and cell viability was measured after 72 hours using CellTiter-Blue® (Patel et al., Cancer Res. Commun. 2(5):277-285 2022. doi: 10.1158/2767-9764.crc-21-0156. Epub 2022 May 2). […] The PRAC-F6 peptide was further tested for cell permeability.
Cell viability of androgen receptor negative and androgen receptor positive cells was tested in vitro. The androgen positive cell lines LNCaP and LNCaP-abl and the androgen receptor negative cell lines PC3 and DU145 were incubated with the PRAC-F6, carboxy terminal peptide including the TAT cell penetration peptide. Cell viability was measured after 72 hours using CellTiter-Blue®.
LNCaP-abl cells were incubated with increasing concentrations of PRAC1 peptides, and cell viability was determined after 72 hours using CellTiter-Blue®. […]

For a further data set, the target named is T1, full-length AR (Homo sapiens, UniProt P10275).
T1 construct: made in house
T1 sequence (P10275 1-920): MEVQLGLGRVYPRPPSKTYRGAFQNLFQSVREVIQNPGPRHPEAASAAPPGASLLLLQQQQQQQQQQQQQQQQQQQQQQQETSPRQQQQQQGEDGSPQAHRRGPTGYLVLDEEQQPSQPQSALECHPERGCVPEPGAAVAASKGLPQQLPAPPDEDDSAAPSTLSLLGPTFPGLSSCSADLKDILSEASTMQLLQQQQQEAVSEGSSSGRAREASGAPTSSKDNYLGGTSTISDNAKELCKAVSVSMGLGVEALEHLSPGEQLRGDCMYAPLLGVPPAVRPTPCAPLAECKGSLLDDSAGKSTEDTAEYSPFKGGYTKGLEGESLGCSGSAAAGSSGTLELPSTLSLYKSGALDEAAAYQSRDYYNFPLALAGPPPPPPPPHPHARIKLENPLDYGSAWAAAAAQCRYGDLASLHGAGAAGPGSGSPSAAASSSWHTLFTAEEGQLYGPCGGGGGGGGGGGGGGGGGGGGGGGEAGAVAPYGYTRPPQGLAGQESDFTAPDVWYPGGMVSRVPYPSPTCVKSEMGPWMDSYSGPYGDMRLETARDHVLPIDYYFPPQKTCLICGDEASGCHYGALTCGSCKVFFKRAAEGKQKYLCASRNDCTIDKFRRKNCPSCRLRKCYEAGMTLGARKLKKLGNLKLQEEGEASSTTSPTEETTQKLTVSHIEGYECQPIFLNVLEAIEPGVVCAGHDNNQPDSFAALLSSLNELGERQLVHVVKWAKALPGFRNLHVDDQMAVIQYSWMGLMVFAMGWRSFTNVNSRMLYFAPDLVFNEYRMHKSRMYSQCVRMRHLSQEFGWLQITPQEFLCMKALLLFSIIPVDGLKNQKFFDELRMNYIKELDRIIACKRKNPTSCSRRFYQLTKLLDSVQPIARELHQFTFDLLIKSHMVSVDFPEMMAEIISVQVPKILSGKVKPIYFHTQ
Briefly: Binding to purified full-length AR and effect on its DNA binding activity. It is filed as biochemical.

Another data set deals with T2, AR LBD (Homo sapiens, UniProt P10275).
T2 sequence (P10275 669-900 limits assumed): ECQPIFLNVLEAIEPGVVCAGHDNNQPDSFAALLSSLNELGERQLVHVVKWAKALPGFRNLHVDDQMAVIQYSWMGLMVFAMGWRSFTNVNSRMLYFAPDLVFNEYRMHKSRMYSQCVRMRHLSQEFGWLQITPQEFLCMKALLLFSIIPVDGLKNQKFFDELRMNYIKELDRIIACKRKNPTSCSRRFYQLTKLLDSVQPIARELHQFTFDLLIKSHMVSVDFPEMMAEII
As to the kind of experiment: Recombinant protein-based binding assay by surface plasmon resonance. The settings on record: highly stringent conditions (0.5M NaCl).

Data set [2] concerns LNCaP-abl cells. The settings on record: N-terminally FITC-labeled peptide, flow cytometry. On the procedure: as §1
A further data set deals with LNCaP. As to the kind of experiment: Cell viability of androgen receptor positive LNCaP cells (CellTiter-Blue, 72 hours). Type of data set: cell-based. The settings on record: LNCaP (AR positive). As for the experimental part:
(§2) Cell viability of androgen receptor negative and androgen receptor positive cells was tested in vitro. The androgen positive cell lines LNCaP and LNCaP-abl and the androgen receptor negative cell lines PC3 and DU145 were incubated with the PRAC-F6, carboxy terminal peptide including the TAT cell penetration peptide.

In the next data set the test system is PC3. Briefly: Cell viability of androgen receptor negative PC3 cells (CellTiter-Blue, 72 hours). Type of data set: cell-based. The settings on record: PC3 (AR negative). As for the experimental part:
as §2

Data set [3] concerns human prostate cancer LAPC4-CR cells. Briefly: In vivo prostate cancer xenograft model (LAPC4-CR in castrated NSG mice). The settings on record: castrated male NSG mice, intraperitoneally daily, versus scrambled control peptide. On the procedure: The peptide was also tested in an in vivo in prostate cancer xenograft model. Male NOD SCID gamma (NSG) mice were chemically castrated by subcutaneous injection of degarelix. Mice were then engrafted with PRAC1-negative human prostate cancer LAPC4-CR cells. When tumors reached palpable size, PRAC1 peptide PRAC-F6 or a scrambled control peptide (sc) were delivered intraperitoneally daily. Tumor size was measured by caliper.

A further data set has as its system DU145. Briefly: Cell viability of androgen receptor negative DU145 cells (CellTiter-Blue, 72 hours). It is filed as cell-based. Conditions: DU145 (AR negative). On the procedure: as §2
Data set [4] relates to LNCaP-abl cells. As to the kind of experiment: Proliferation of LNCaP-abl cells with enzalutamide by live cell imaging. It is filed as cell-based. The settings on record: 10 μM enzalutamide. On the procedure:
Resistance to ARSI therapy is a major driver of PC related mortality. In this example, PRAC1-negative LNCaP-abl cells were grown in fully supplemented growth media (RPMI plus 10% FBS) in the absence or presence of 10 μM enzalutamide. Cell proliferation was determined longitudinally by live cell imaging using a Cytation™ 5 imaging instrument. […] Restoring PRAC1 function can result in re-sensitization of ARSI therapy (FIG. 4).

Take PPRVLFSLIRKHLLRKKRRQRRRG [SEQ ID NO:18]: the figures for the cell viability entry in the data set with MCF7 and with LNCaP-abl cells [1] were “dose-dependent decrease in cell viability; also recorded: dose-dependent decrease is cell viability” and “profound anti-tumor cell activity”, respectively.

With “MLACKVRQAGFWSPPLQREQRCCAPISQIKDRPILLPPRVLFSLIRKHLL (listed as Homo sapiens) [PRAC1, PRAC1 protein encoded by ORF1 of PRAC1 gene]”, in the data set with full-length AR, the “binding to full-length AR and change of its DNA binding activity” value was “specifically binds and alters full-length AR's DNA binding activity”. In addition, the “binding to AR LBD” value in the data set with AR LBD is listed as “specifically binds the AR LBD”.

“PPRVLFSLARKHLLRKKRRQRRRG [SEQ ID NO:27, isoleucine-to-alanine substitution mutant]”: the cell viability result with LNCaP-abl cells [1] is “no effect on cell viability”.

Consider “LFSLIRKHLLRKKRRQRRRG [PRAC1-F6, C-terminus of PRAC1 linked to the cell permeable TAT peptide]”, for which the “peptide uptake (cellular internalization)” value in the data set with LNCaP-abl cells [2] (listed as PRAC-F6) is on record as “rapid cellular internalization”; in the data set with LNCaP-abl cells [2] (listed as SEQ ID NO:17), “uptake”. Also, the cell viability entry is “profound dose-dependent decrease in cell viability” in the data set on LNCaP; “profound loss of viability” with LNCaP (listed as PRAC-F6); “Only AR-expressing cell lines show profound dose-dependent decrease in cell viability” in the data set with PC3; “only AR-expressing cell lines show a profound loss of viability” with PC3 (listed as PRAC-F6); “Only AR-expressing cell lines show profound dose-dependent decrease in cell viability” in the data set on DU145; “only AR-expressing cell lines show a profound loss of viability” with DU145 (listed as PRAC-F6). Also, the cell viability entry in the data set with LNCaP-abl cells [1] is reported as “biologically active in reducing cell viability; also recorded: profound dose-dependent decrease in cell viability”; in the data set on LNCaP-abl cells [1] (listed as PRAC-F6), “profound loss of viability”. Also, the “tumor growth (tumor size by caliper)” value in data set [3] was “suppression of LAPC4-CR tumor growth”; in [3] (listed as PRAC-F6), “suppression of tumor growth”.

Consider `CNC(=O)c1ccc(N2C(=S)N(c3ccc(C#N)c(C(F)(F)F)c3)C(=O)C2(C)C)cc1F` [enzalutamide], for which the “cell proliferation / sensitivity to enzalutamide” value is “resistant to enzalutamide across a broad concentration range” in the data set on LNCaP-abl cells [4] (LNCaP-abl cells transduced with control vector (RFP), RPMI plus 10% FBS); “sensitization to enzalutamide and significant growth suppression; also recorded: restoration of sensitivity to this drug” in the data set on LNCaP-abl cells [4] (LNCaP-abl cells with re-expression of PRAC1 (lentiviral ORF1)).

Take “PPRVLFSLIAKHLLRKKRRQRRRG [SEQ ID NO:28, arginine-to-alanine mutant]”: the cell viability entry with LNCaP-abl cells [1] is “attenuated activity on cell viability”.
